Series [1] relates to nitric oxide (NO). Briefly: Involvement of nitric oxide, NG-methyl-L-arginine (NMLA) as blocking agent. As to conditions: 4 μl of NMLA (1 mol) added; compared to Yoshixol alone. The method, then: Recent interest has been focused recently in effects of nitric oxide (NO) which is generated in body. Such effects are anticancer effect, bactericidal effect, inhibitory effect of antigen-antibody reaction and cardiovascular effect. […] When 4 μl of NMLA (1 mol) was added in the each test sample with and without Yoshixol, blood aggregation effect, effect of fibrin formation and bactericidal effect of Yoshixol were decreased by 10-20% comparing to effect of Yoshixol alone.

The target in series [2] is thrombin (Homo sapiens, UniProt P00734). Briefly: Thrombin treated with Yoshixol added in fibrinogen, thromboelastgram. The class given is biochemical. Also noted: thrombin (Behlinger Manheim-Yamanouchi Co.) was investigated by electrophoresis; purchased Behlinger Manheim-Yamanouchi Co. As to the method:
Effect of Yoshixol (4 μl) on human blood coagulation and fibrin formation (thrombin was added to fibrinogen) were investigated by thromboelastgram (Hellige GMBH, West Germany). Also, a magnitude of fibrin network which is formed at human blood coagulation was investigated by a scanning electron microscopy. Coagulation of human blood without treatment with Yoshixol was started within 1-2 min so that maximum level of coagulation occurred approximately within 15 min, followed by gradual decrease due to activation of fibrinolytic system. Immediately after thrombin is added on fibrinogen, viscosity of the sample started to increase, reached to a maximum level within 5-6 minutes. This maximum level was maintained for periods of 6 hours which was observed (referred FIG. 3a). However, when Yoshixol (4 μl) was added in 0.4 ml of whole blood or fibrinogen (160 mg/dl), onset time of blood coagulation and fibrin formation was delayed to 4-5 minutes and maximum aggregation time was occurred within 6-8 minutes. Maximum level of coagulation after the treatment was inhibited by 90% of control which level was maintained over 6 hours of investigation (referred FIG. 3b).

For series [3], the target named is T1, Recombinant Taq DNA Polymerase (Thermus aquaticus, UniProt P19821).
T1 construct: purchased TaKaRa Shuzo Co., Otsu city R001A
Briefly: PCR with polymerase enzymes treated with Yoshixol. It counts as biochemical. As to the method:
Effect of Yoshixol on PCR was investigated by DNA template which was extracted from snake (blue-green snake, captured at Matsumoto city, Nagano). The new synthesized dimer of (SEQ ID NO: 2) (5′>CTTCGGGCTTCGGG<3′) with 7 base-pair alignment (CTTCGGG) above-mentioned was used as a primer. PCR reaction was done by use of DNA thermal cycler (PJ-2000) made in PERKIN ELMER CETUS company. The following six combinations were prepared for the test samples. Those are two kinds of samples which consist of 5 μl of primer (100 pico mole/μl) with 5 μl of Yoshixol (P+) and without Yoshixol (P−). In addition, two kinds of samples which consist of 5 μl. of snake DNA (500 ng/μl) with 5 μl of Yoshixol (D+) and without Yoshixol (D−). And, additional two kinds of samples which consist of 1 μl of polymerase enzymes (Recombinant Taq DNA Polymerase, No. R001A, TaKaRa Shuzo Co., Otsu city: 5 unit/pd) with 1 μl of Yoshixol (Pm+) and without Yoshixol (Pm−). After each sample was placed for 10 minutes at room temperature, each sample was diluted in distilled water. And, it is adjusted in a primer solution of 10 picomole/μl, DNA solution of 50 ng/μl and a polymerase enzymes solution of 0.5 unit/μl. Then, the following combinations were prepared. […] In each combination, amount of cDNA synthesis was amplified by a PCR method and was measured. […]

Series [4] concerns rejected reaction on heterogeneous skin implantation. As to the kind of experiment: Heterogeneous skin implantation, recipient dogs given Yoshixol intravenously. The class given is in vivo, dog (rabbit skin).
The nature of series [5]: Stability of solution under light. The class given is physicochemical. As to conditions: sealed glass tube, stocked under room light, 6 months after the synthesis. An excerpt: <Stability of Solution Under Light>
Series [6] relates to E79 double-chained DNA phage. As to the kind of experiment: Effect on bacteriophage, numbers of plaques. The class given is cell-based, bacteriophage (indication bacteria pseudomonas aeruginosa). The method, then:
Yoshixol (4 μl) were added in 1 ml of phage solution (E79 double-chained DNA phage) which was adjusted on about 10^7 per 1 ml, and were mixed well. Then, 10 μl of the mixture sampled after 5, 10, 20, 30 minutes was diluted by quickly adding in 10 ml of medium, so that 100 μl of the phage-diluted solution put into the test tube as the upper plate with the warmed gelatin agar, which was mixed with 100 μl of the indication bacterial solution (pseudomonas aeruginosa) cultured for one night. Then, the adjusted solution of the phages in the test tube was dropped on the agar plate and, homogeneous surface of the upper agar plate was produced by smoothly rotating the plate on the table. After resting it on the table about 10 minute when multilayer gelatin agar sufficiently became solid, they were stocked into the incubator at 37° C. After one night incubation, numbers of plaques were counted. As a result, the numbers of plaques in the 5 min-treated phage solution, in 10 min-treated phage solution and in the […] phage solution with Yoshixol decreased to 33%, 15% and 6% of the plaques formation in the non-treated phage solution, respectively.

For the molecule `C=C1CC(C)(C)C=CC1=O` [Yoshixol, 4,4-dimethyl-6-methylene-2-cyclohexen-1-one], the “decrease of blood aggregation effect, effect of fibrin formation and bactericidal effect of Yoshixol” value in series [1] is 10-20%. In addition, the “aggregation reaction on thromboelastgram” value in series [2] is “any of aggregation reaction was not be found”. Further, the “PCR bounds, group P−, D−, Pm+” value in series [3] (1 μl polymerase with 1 μl of Yoshixol, untreated 4 bounds between 0.5 and 1.2 kb) is reported as “only one bound at lowest molecular weight within 4 bounds was appeared”. In series [3] (concentration of Yoshixol for the polymerase increased to 100 times), the “PCR bounds, group P−, D−, Pm+A” value is reported as “any kind of bounds did not observe”. Further, the “epithelialization of wounded skin” value in series [4] (dogs, 10 μl/Kg per day intravenously for one week, 3 month after implantation) was “well epithelialization was found”. In series [4] (dogs, 10 μl/Kg per day of Yoshixol intravenously for one week, no antibiotics or immunosuppressants), the “implantation of transplanted rabbit skin” value was “implanted on the back of dog over 1 month without a rejection reaction and bacterial infection”. For the same molecule, the “behaviors of adult mongrel dog” value in series [4] (intravenous administration, compared with before the treatment) is “became vigor, youthful and appetite-well”. For the same molecule, the “Changes in coloring, viscosity and odor” value in series [5] is “did not change”. Further, the “numbers of plaques, of the plaques formation in the non-treated phage solution” value in series [6] (Yoshixol 4 μl in 1 ml phage solution (about 10^7 per ml), 5 min-treated) is given as 33%; in series [6] (Yoshixol 4 μl in 1 ml phage solution, 10 min-treated) it was 15%; in series [6] (Yoshixol 4 μl in 1 ml phage solution, 15 min-treated), 6%. Further, the plaques formation entry in series [6] (Yoshixol 4 μl in 1 ml phage solution, treated over 20 min) was “plaques formation did not find”.

For the origin of these results see patent US6710090B2, “Inhibitory or blocking agents of molecular generating and/or inducing functions” (priority 1994, dated 2004).
